Consider two compounds from PMC9841531, “Indole Derivatives as New Structural Class of Potent and Antiproliferative Inhibitors of Monocarboxylate Transporter 1 (MCT1; SLC16A1)” (Journal of Medicinal Chemistry, 2022).

Format in all cases: cell-based
Series [1] deals with ABCB1 (P-glycoprotein, P-gp) (Homo sapiens, UniProt P08183). Kind of series: daunorubicin assay, ABCB1-expressing A2780/ADR cells. The settings on record: human, ABCB1-expressing A2780/ADR cells, probe daunorubicin (3 μM final); relative to reference inhibitor 34 = 100%; read-out: maximal inhibition (Imax), ABCB1 daunorubicin.
Another series addresses T1, MCT1 (Homo sapiens, UniProt P53985).
T1 construct: MCT1-expressing A-549 cells[14],[15] were exposed to the MCT1 substrate 3-BP, which becomes influxed by MCT1; endogenous in cells; host or cells: A-549 lung cancer cells (from NCCS, Pune)
T1 sequence (P53985 1-500): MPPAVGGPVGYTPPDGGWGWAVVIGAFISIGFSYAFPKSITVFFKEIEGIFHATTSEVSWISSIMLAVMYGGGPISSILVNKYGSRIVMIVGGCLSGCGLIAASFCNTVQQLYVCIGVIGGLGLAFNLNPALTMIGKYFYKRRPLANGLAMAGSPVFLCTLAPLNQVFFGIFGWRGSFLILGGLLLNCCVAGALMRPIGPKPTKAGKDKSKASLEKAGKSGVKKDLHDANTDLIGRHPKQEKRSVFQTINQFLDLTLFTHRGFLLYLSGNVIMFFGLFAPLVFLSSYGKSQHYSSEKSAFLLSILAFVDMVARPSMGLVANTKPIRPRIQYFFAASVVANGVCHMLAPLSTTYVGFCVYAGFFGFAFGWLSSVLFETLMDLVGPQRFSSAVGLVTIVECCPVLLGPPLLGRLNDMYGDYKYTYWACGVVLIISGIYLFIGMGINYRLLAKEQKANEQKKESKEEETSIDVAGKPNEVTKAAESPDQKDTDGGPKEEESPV
T1 sequence (P35613 140-385 partner limits assumed): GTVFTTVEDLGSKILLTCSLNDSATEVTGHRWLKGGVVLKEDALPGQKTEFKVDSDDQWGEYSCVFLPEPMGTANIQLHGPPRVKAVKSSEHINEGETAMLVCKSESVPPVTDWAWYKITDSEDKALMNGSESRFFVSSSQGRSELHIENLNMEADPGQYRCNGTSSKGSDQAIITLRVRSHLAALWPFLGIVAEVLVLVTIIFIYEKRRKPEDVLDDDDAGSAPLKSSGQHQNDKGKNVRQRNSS
Kind of series: functional 3-BP cell viability assay (MCT1 transport inhibition). The settings on record: MCT1-expressing A-549 cells, 50 μM 3-BP, 72 h; read-out: MCT1 transport inhibition IC50 ± SEM. Here is the method: The inhibitory activity of indole derivatives against MCT1 was determined by applying a functional 3-bromopyruvate (3-BP) cell viability assay, as described in the literature[20],[39] with minor modifications. In short, MCT1-expressing A-549 cells[14],[15] were exposed to the MCT1 substrate 3-BP, which becomes influxed by MCT1. 3-BP is toxic, leading to decreased cell viability. Functional inhibition of MCT1 results in reduced intracellular 3-BP levels and, thus, enhanced cell viability compared to no inhibition. […] Table 1 provides the half-maximal inhibition concentration (IC50) values of compounds 17–32.
A functional 3-BP cytotoxicity assay was conducted as described in the literature[20],[39] with minor modifications. Dilution series of compounds 17–32 between 1 nM and 1 μM were prepared in DPBS (Cell Clone, Genetix Biotech Asia, New Delhi India), and 10 μL of each concentration was pipetted into a colorless flat-bottom 96-well microplate (SPL Life Sciences, Gyeonggi-do, Republic of Korea). One hundred and eighty microliters of a cell suspension (5000 cells/well) of A-549 cells was added, and subsequently, 10 μL of 3-BP was added at a concentration of 1 mM (final concentration per well: 50 μM). The plate was kept for 72 h at 37 °C under a 5% CO2-humidified atmosphere. Cell viability was determined as described before[43] by adding 20 μL of a 5 mg/mL solution of MTT to each well and further incubation for 1 h. Eventually, the supernatant was removed and 100 μL of DMSO was added to each well. The absorbance was spectrophotometrically determined at 570 nm using a SpectraMax iD3 multi-mode microplate reader (Molecular Devices, San Jose, CA) with a background correction (690 nm). The determined absorbance values were correlated to the logarithmic concentrations of compounds 17–32, and IC50 values were calculated applying nonlinear regression using GraphPad Prism (version 8.4.0., San Diego, CA).

Another series concerns the target ABCB1 (P-gp) (Homo sapiens, UniProt P08183). Description: daunorubicin assay, ABCB1-expressing A2780/ADR cells. To be noted: human, ABCB1-expressing A2780/ADR cells, probe daunorubicin (3 μM final); relative to reference inhibitor 34 = 100%; read-out: maximal inhibition (Imax), ABCB1 daunorubicin.
The next series deals with A-549 cells. Description: PI/Annexin V-FITC apoptosis assay. The settings on record: 5 μM. An excerpt:
As compound 24 increased the sub-G1 cell cycle fraction of A-549 cells, we investigated its capability to induce apoptosis in a PI/Annexin V-FITC staining assay, as reported earlier.[44],[46]−[51] In short, cells that were stained with PI only were considered necrotic cells (Q1), while cells stained with both PI and Annexin V were late apoptotic (Q2), and cells stained with Annexin V only were early apoptotic (Q4). Cells negative on both PI and Annexin V were considered living cells (Q3).
A PI/Annexin V-FITC double staining method was used to carry out a flow cytometry-based apoptosis assay, as reported earlier.[44],[46]−[51] For this purpose, a PI/Annexin V-FITC apoptosis detection kit (BD Biosciences, Franklin Lakes, NJ) was used following the manufacturer’s instructions. A-549 cells were seeded onto 6-well plates with a density of 500,000 cells/well and incubated for 24 h at 37 °C under a 5% CO2-humidified atmosphere. Subsequently, the cells were exposed to compound 24 (5 μM) followed by a further incubation period of 24 h at 37 °C under a 5% CO2-humidified atmosphere. The cells were trypsinized, washed with PBS, and resuspended in 1x binding buffer (1,000,000 cells/mL). One hundred microliters of test solution containing 100,000 cells treated with a mixture of PI (5 μL) and Annexin V-FTIC (5 μL) was incubated in the dark for 10–15 min at room temperature. Four hundred microliters of binding buffer was added, and the cells were resuspended again just before the flow cytometry analysis by using flow cytometry.

ABCB1 (P-glycoprotein, P-gp), sequence (P08183 whole entry): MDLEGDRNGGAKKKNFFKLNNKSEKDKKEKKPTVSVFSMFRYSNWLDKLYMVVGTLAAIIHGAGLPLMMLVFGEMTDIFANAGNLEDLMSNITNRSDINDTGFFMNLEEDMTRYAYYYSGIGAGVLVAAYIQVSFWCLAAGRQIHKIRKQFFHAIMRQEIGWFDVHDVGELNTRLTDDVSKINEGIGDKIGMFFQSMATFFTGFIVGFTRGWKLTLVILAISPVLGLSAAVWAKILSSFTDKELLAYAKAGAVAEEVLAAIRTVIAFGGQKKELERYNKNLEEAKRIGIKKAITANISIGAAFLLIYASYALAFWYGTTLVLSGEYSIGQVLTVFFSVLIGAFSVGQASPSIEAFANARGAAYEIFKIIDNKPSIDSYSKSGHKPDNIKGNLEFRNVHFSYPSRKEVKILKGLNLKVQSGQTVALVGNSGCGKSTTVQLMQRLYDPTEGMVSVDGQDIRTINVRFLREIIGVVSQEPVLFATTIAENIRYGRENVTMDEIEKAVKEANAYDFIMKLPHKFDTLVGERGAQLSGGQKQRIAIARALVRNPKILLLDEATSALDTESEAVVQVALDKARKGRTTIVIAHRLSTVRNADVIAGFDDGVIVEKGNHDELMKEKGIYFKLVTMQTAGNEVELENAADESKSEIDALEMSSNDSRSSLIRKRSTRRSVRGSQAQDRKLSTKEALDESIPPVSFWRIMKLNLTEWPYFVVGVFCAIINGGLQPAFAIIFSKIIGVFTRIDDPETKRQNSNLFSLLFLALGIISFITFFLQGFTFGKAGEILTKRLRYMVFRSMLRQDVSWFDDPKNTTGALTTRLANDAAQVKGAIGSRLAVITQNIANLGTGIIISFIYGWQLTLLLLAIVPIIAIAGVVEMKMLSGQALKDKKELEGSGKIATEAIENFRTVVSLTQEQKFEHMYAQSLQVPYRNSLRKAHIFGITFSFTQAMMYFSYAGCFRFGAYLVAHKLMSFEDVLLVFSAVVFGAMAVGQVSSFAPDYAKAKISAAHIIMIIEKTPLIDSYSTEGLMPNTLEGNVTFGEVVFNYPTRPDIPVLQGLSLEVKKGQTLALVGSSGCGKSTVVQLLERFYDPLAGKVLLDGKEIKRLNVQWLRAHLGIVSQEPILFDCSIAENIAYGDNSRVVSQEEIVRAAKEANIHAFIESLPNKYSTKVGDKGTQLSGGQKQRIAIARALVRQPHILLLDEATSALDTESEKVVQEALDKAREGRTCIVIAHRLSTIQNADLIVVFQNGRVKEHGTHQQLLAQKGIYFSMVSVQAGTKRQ
ABCB1 (P-gp), sequence (P08183 whole entry): as above

By inhibition is commonly meant the share of the control response that was lost under treatment. For orientation: IC50 means the point on the concentration scale where inhibition reaches its midpoint. Consider `COC(=O)/C(C#N)=C/c1cn(CC(=O)Nc2ccc(C)cn2)c2ccccc12` [Compound 30, Methyl-2-cyano-3-(1-(2-((5-methylpyridin-2-yl)amino)-2-oxoethyl)-1H-indol-3-yl) Acrylate], for which, in series [1], the inhibition at 180 min turned out to be 93.3%. For the same compound, the IC50 on MCT1 worked out at 82.3 ± 4.4 nM.

As for `COC(=O)/C(C#N)=C/c1cn(CC(=O)Nc2ccc(OC)cc2)c2ccccc12` [Compound 24, Methyl-2-cyano-3-(1-(2-((4-methoxyphenyl)amino)-2-oxoethyl)-1H-indol-3-yl) Acrylate], the inhibition at 180 min on ABCB1 (P-gp) was 84%. In the series with A-549 cells, the “factor of increase of total apoptotic cells vs untreated” value is 13. Besides, in the series with A-549 cells (24 h), the “Q1 necrotic cells (PI only)” value came to 10.6%; the “Q2 late apoptotic cells (PI and Annexin V)” value amounted to 5.08%; the Q3 living cells is 82.7%; the “Q4 early apoptotic cells (Annexin V only)” value amounted to 1.60%. Moreover, in the series on A-549 cells (24 h, untreated 0.51%), the “percentage of total apoptotic cells” value was found to be 6.68%. Further, the IC50 at MCT1 is 81 ± 4 nM.
